Data on one molecule can be found in publication PMC2593902, “Regulation of cyclic AMP response-element binding-protein (CREB) by Gq/11-protein-coupled receptors in human SH-SY5Y neuroblastoma cells” (Biochemical Pharmacology, 2008).

This experiment has as its target T1, M3 muscarinic acetylcholine (mACh) receptor (Homo sapiens, UniProt P20309).
T1 construct: gene CHRM3
In words: Fura-2 Ca2+ mobilization in SH-SY5Y cells endogenously expressing the receptor (also Ins([…])P3 and phospho-CREB). It counts as cell-based.

SMILES strings stand for the structures.

T1 sequence (P20309 whole entry): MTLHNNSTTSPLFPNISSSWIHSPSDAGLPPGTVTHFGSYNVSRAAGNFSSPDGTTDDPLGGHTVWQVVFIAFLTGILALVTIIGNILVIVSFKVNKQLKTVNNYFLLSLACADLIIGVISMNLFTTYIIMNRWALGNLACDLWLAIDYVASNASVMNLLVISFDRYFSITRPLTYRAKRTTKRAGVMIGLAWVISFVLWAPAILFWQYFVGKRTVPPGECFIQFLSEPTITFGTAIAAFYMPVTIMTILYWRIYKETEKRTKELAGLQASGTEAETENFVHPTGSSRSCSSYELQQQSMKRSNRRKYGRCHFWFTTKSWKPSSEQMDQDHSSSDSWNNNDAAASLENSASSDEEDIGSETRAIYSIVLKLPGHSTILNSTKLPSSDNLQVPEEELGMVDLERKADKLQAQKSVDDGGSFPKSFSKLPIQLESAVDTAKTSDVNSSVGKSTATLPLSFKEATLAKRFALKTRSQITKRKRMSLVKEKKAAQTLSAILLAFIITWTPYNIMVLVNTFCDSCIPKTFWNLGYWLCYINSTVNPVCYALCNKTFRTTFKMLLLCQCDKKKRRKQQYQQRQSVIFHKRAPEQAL

What is called EC50 is the concentration giving half of the maximal effect. The low end stands for greater potency, the high end for weaker potency. `CC(=O)OC(C)C[N+](C)(C)C` (stereo not shown) [MCh, methacholine] showed an EC50 of 800 nM.
